According to the supplement of paper PMC13380429:

Tests used:
Details in all cases: 72 h
Caco-2 [1] = assay: cell viability relative to DMSO; higher = less toxic
Calu-3 [2] = assay: as above
HepG2 [3] = assay: as above
U2OS [4] = assay: as above
Vero E6 [5] = assay: as above
Caco-2 [6] = assay: relative viability EC50 (midpoint between 100% and the lowest measured viability); higher = less toxic
Calu-3 [7] = assay: as above
HepG2 [8] = assay: as above
U2OS [9] = assay: as above
Vero E6 [10] = assay: as above
Caco-2 [11] = assay: drug sensitivity score (DSS) for viability; higher = more toxic; extreme values may be limits of the assay
Calu-3 [12] = assay: as above
HepG2 [13] = assay: as above
U2OS [14] = assay: as above
Vero E6 [15] = assay: as above

Compound	cell viability (Caco-2 [1]; 1 nM)	cell viability (Caco-2 [1]; 10 nM)	cell viability (Caco-2 [1]; 100 nM)	cell viability (Caco-2 [1]; 1000 nM)	cell viability (Caco-2 [1]; 10000 nM)	cell viability (Calu-3 [2]; 1 nM)	cell viability (Calu-3 [2]; 10 nM)	cell viability (Calu-3 [2]; 100 nM)	cell viability (Calu-3 [2]; 1000 nM)	cell viability (Calu-3 [2]; 10000 nM)	cell viability (HepG2 [3]; 1 nM)	cell viability (HepG2 [3]; 10 nM)	cell viability (HepG2 [3]; 100 nM)	cell viability (HepG2 [3]; 1000 nM)	cell viability (HepG2 [3]; 10000 nM)	cell viability (U2OS [4]; 1 nM)	cell viability (U2OS [4]; 10 nM)	cell viability (U2OS [4]; 100 nM)	cell viability (U2OS [4]; 1000 nM)	cell viability (U2OS [4]; 10000 nM)	cell viability (Vero E6 [5]; 1 nM)	cell viability (Vero E6 [5]; 10 nM)	cell viability (Vero E6 [5]; 100 nM)	cell viability (Vero E6 [5]; 1000 nM)	cell viability (Vero E6 [5]; 10000 nM)	relative viability EC50 (Caco-2 [6])	relative viability EC50 (Calu-3 [7])	relative viability EC50 (HepG2 [8])	relative viability EC50 (U2OS [9])	relative viability EC50 (Vero E6 [10])	drug sensitivity score (Caco-2 [11])	drug sensitivity score (Calu-3 [12])	drug sensitivity score (HepG2 [13])	drug sensitivity score (U2OS [14])	drug sensitivity score (Vero E6 [15])
CN(Cc1cccc(-c2ccccc2)c1)C(=O)Oc1ccc(-c2ccc(C(N)=O)cc2)cc1 [WWL-123]	99.1%	95.4%	98.1%	91.8%	84.8%	101%	99.7%	101%	105%	99.4%	95.9%	110%	108%	102%	100%	101%	98.7%	102%	98%	101%	101%	100%	101%	99.5%	98.3%	> 10 µM	> 10 µM	> 10 µM	> 10 µM	> 10 µM	0.4	0	0	0	0
C[n+]1c2cc(N)ccc2cc2ccc(N)cc21.Nc1ccc2cc3ccc(N)cc3nc2c1 [acriflavine]	91.9%	101%	93.6%	65.2%	19.2%	103%	93.1%	102%	73%	15.4%	91.6%	95.3%	88.9%	29.2%	0.7%	98.1%	100%	96.6%	95.8%	0%	97%	100%	98.8%	95.1%	2.8%	1.17 µM	1.35 µM	0.49 µM	2.85 µM	2.77 µM	8.5	8.6	14.9	6.1	6.1
NC(=O)c1ccc([N+](=O)[O-])cc1Cl [aklomide]	95.9%	95.3%	100%	92.2%	98.1%	112%	106%	112%	98.9%	103%	95.5%	95.9%	100%	91%	102%	107%	103%	99.4%	101%	103%	98.4%	98.4%	95.8%	96.6%	104%	> 10 µM	> 10 µM	> 10 µM	> 10 µM	> 10 µM	0	0	0	0	0
Oc1ncnc2[nH]ncc12 [allopurinol]	91.5%	97%	104%	89.6%	100%	100%	98%	90.4%	98%	94.1%	113%	99.6%	99.5%	103%	91.7%	100%	103%	102%	99.2%	101%	107%	104%	92%	101%	93.9%	> 10 µM	> 10 µM	> 10 µM	> 10 µM	> 10 µM	0	0	0	0	0
NCC[C@H](O)C(=O)N[C@@H]1C[C@H](N)[C@@H](O[C@H]2O[C@H](CN)[C@@H](O)[C@H](O)[C@H]2O)[C@H](O)[C@H]1O[C@H]1O[C@H](CO)[C@@H](O)[C@H](N)[C@H]1O [amikacin]	95.7%	103%	99.5%	104%	104%	100%	99.7%	94.9%	105%	91.5%	101%	104%	96.6%	92.6%	113%	97.5%	98.3%	98.9%	103%	97.9%	94.8%	98.5%	96.9%	94.5%	103%	> 10 µM	> 10 µM	> 10 µM	> 10 µM	> 10 µM	0	0	0	0	0
Cc1ccc(/N=C/N(C)/C=N/c2ccc(C)cc2C)c(C)c1 [amitraz]	94.1%	99.5%	91.8%	104%	88.1%	95.1%	104%	98.1%	105%	96.1%	96%	81.2%	103%	87.4%	92.2%	101%	99.2%	94.6%	95.5%	87.8%	94.8%	103%	95.8%	95.6%	104%	> 10 µM	> 10 µM	> 10 µM	> 10 µM	> 10 µM	0	0	0	0	0
CC(C)(C#N)c1cc(Cn2cncn2)cc(C(C)(C)C#N)c1 [anastrozole]	89.4%	101%	92.9%	96.9%	95.8%	97.1%	98.7%	93.8%	116%	103%	89.5%	94.3%	96.1%	97.5%	96.4%	92.7%	98.3%	96.3%	104%	113%	94%	99.2%	97.7%	99.3%	107%	> 10 µM	> 10 µM	> 10 µM	> 10 µM	> 10 µM	0	0	0	0	0
